According to ChEMBL document CHEMBL4390696, “Orientation preferences of hairpin pyrrole-imidazole polyamides toward mCGG site” (Bioorg Med Chem, 2019):

Legend:
[1] = Orientation preference, ratio of change in melting temperature of forward binding site of 5'-ATmCGGAT-3' DNA (unknown origin) to sum of change in melting temperature of forward binding site and change in melting temperature of reverse binding site for 5'-ATmCGGAT-3' DNA (unknown origin)
[2] = Binding affinity to 5'-ATCGGAT-3' DNA (unknown origin) assessed as dissociation constant incubated for 180 secs by SPR analysis
[3] = Binding affinity to 5'-ATmCGGAT-3' DNA (unknown origin) in reverse orientation assessed as change in melting temperature at 5 uM by UV-vis spectrophotometry
[4] = Binding affinity to 5'-ATmCGGAT-3' DNA (unknown origin) assessed as association constant incubated for 180 secs by SPR analysis
[5] = Binding affinity to 5'-ATCGGAT-3' DNA (unknown origin) assessed as association constant incubated for 180 secs by SPR analysis
[6] = Binding affinity to 5'-ATmCGGAT-3' DNA (unknown origin) assessed as dissociation rate constant incubated for 180 secs by SPR analysis
[7] = Binding affinity to 5'-ATGGmCAT-3' DNA (unknown origin) in reverse orientation assessed as change in melting temperature at 5 uM by UV-vis spectrophotometry
[8] = Binding preference index, ratio of Kd for 5'-ATmCGGAT-3' DNA (unknown origin) to Kd for 5'-ATCGGAT-3' DNA (unknown origin)
[9] = Binding affinity to 5'-ATCGGAT-3' DNA (unknown origin) assessed as dissociation rate constant incubated for 180 secs by SPR analysis
[10] = Binding affinity to 5'-ATmCGGAT-3' DNA (unknown origin) assessed as dissociation constant incubated for 180 secs by SPR analysis
[11] = Orientation preference, ratio of change in melting temperature of forward binding site of 5'-ATGGmCAT-3' DNA (unknown origin) to sum of change in melting temperature of forward binding site and change in melting temperature of reverse binding site for 5'-ATGGmCAT-3' DNA (unknown origin)
[12] = Binding affinity to 5'-ATGGmCAT-3' DNA (unknown origin) in forward orientation assessed as change in melting temperature at 5 uM by UV-vis spectrophotometry
[13] = Binding affinity to 5'-ATmCGGAT-3' DNA (unknown origin) in forward orientation assessed as change in melting temperature at 5 uM by UV-vis spectrophotometry
[14] = Binding affinity to mCGG containing DNA assessed as inhibition of mouse TET1 catalytic domain binding to methylated 18 bp DNAs assessed as reduction in TET1-methylated DNA complex formation incubated for 30 mins by electrophoretic mobility shift assay

Which Ratio [1] does the source give for `CC(=O)Nc1cc(C(=O)Nc2cc(C(=O)Nc3cn(C)c(C(=O)Nc4cc(C(=O)NCCCC(=O)Nc5cc(C(=O)NCCC(=O)Nc6cn(C)c(C(=O)Nc7cn(C)c(C(=O)NCCC(=O)NCCCN(C)C)n7)n6)n(C)c5)n(C)c4)n3)n(C)c2)n(C)c1` here?
The Ratio was 0.29.

What about the Kd [2] of the same molecule?
The Kd was 21 nM.

And the ΔTm [3]?
The ΔTm was 5.9 °C.

What about the Ka [4] of the same molecule?
Its Ka is 5.1 ×10⁵ /M/s.

And the Ka [5]?
Its Ka is 5.2 ×10⁵ /M/s.

What about the “Dissociation rate constant (koff)” value [6] of the same molecule?
The value was 2.3 ×10⁻² /s.

And the ΔTm [7]?
The ΔTm was 14.8 °C.

And the Ratio [8]?
Its Ratio is 2.2.

What about the “Dissociation rate constant (koff)” value [9] of the same molecule?
Its value is 1.1 ×10⁻² /s.

What about the Kd [10] of the same molecule?
Its Kd is 46 nM.

What does the source list for `CC(=O)Nc1cc(C(=O)NCCC(=O)Nc2cn(C)c(C(=O)Nc3cc(C(=O)NCCCC(=O)Nc4cc(C(=O)Nc5cc(C(=O)Nc6cn(C)c(C(=O)Nc7cn(C)c(C(=O)NCCC(=O)NCCCN(C)C)n7)n6)n(C)c5)n(C)c4)n(C)c3)n2)n(C)c1`?
Ratio [1]: 0.2; Kd [2]: 530 nM; ΔTm [3]: 3.3 °C; Ka [4]: 3.1 ×10⁴ /M/s; Ka [5]: 3.6 ×10⁴ /M/s; Dissociation rate constant (koff) [6]: 1.5 ×10⁻² /s; ΔTm [7]: 13.1 °C; Ratio [8]: 0.9; Dissociation rate constant (koff) [9]: 1.9 ×10⁻² /s; Kd [10]: 480 nM

What does the source list for `CC(=O)Nc1cc(C(=O)Nc2cn(C)c(C(=O)Nc3cc(C(=O)Nc4cc(C(=O)NCCCC(=O)Nc5cn(C)c(C(=O)Nc6cn(C)c(C(=O)Nc7cc(C(=O)Nc8cc(C(=O)NCCC(=O)NCCCN(C)C)n(C)c8)n(C)c7)n6)n5)n(C)c4)n(C)c3)n2)n(C)c1`?
Ratio [11]: 0.94; Kd [2]: 48 nM; Ka [4]: 4.3 ×10³ /M/s; ΔTm [12]: 21.5 °C; ΔTm [13]: 1.4 °C; Ka [5]: 1.2 ×10⁴ /M/s; Dissociation rate constant (koff) [6]: 2.6 ×10⁻⁴ /s; Ratio [8]: 1.3; Dissociation rate constant (koff) [9]: 5.9 ×10⁻⁴ /s; IC50 [14]: Not Active; Kd [10]: 61 nM

What does the source list for `CC(=O)Nc1cc(C(=O)Nc2cn(C)c(C(=O)NCCC(=O)Nc3cc(C(=O)NCC[C@H](N)C(=O)Nc4cn(C)c(C(=O)Nc5cn(C)c(C(=O)NCCC(=O)Nc6cc(C(=O)NCCC(=O)NCCCN(C)C)n(C)c6)n5)n4)n(C)c3)n2)n(C)c1`?
Ratio [1]: 0.39; Kd [2]: 3.6 nM; ΔTm [3]: 20.8 °C; Ka [4]: 2.5 ×10⁶ /M/s; Ka [5]: 2.4 ×10⁶ /M/s; Dissociation rate constant (koff) [6]: 5.8 ×10⁻³ /s; ΔTm [7]: 13.3 °C; Ratio [8]: 1.1; Dissociation rate constant (koff) [9]: 8.6 ×10⁻³ /s; IC50 ([14]; read-out: IC50): 120 nM; Kd [10]: 2.3 nM

With `CC(=O)Nc1cc(C(=O)NCCC(=O)Nc2cn(C)c(C(=O)Nc3cc(C(=O)NCCCC(=O)Nc4cc(C(=O)NCCC(=O)Nc5cn(C)c(C(=O)Nc6cn(C)c(C(=O)NCCC(=O)NCCCN(C)C)n6)n5)n(C)c4)n(C)c3)n2)n(C)c1` as the molecule, how does the Ratio [1] read?
Its Ratio is 0.42.

What about the Kd [2] of the same molecule?
Its Kd is 9.8 nM.

And the ΔTm [3]?
Its ΔTm is 11.8 °C.

What about the Ka [4] of the same molecule?
Its Ka is 7.4 ×10⁶ /M/s.

And the Ka [5]?
Its Ka is 9 ×10⁶ /M/s.

What about the “Dissociation rate constant (koff)” value [6] of the same molecule?
Its value is 6.6 ×10⁻² /s.

What about the ΔTm [7] of the same molecule?
Its ΔTm is 16.2 °C.

And the Ratio [8]?
The Ratio was 0.9.

What about the “Dissociation rate constant (koff)” value [9] of the same molecule?
The value was 8.9 ×10⁻² /s.

What about the Kd [10] of the same molecule?
The Kd was 8.9 nM.

For `CC(=O)Nc1cc(C(=O)NCCC(=O)Nc2cn(C)c(C(=O)Nc3cc(C(=O)NCC[C@@H](N)C(=O)Nc4cc(C(=O)NCCC(=O)Nc5cn(C)c(C(=O)Nc6cn(C)c(C(=O)NCCC(=O)NCCCN(C)C)n6)n5)n(C)c4)n(C)c3)n2)n(C)c1`, which Ratio [1] is on record?
The Ratio was 0.47.

And the Kd [2]?
The Kd was 1.7 nM.

And the ΔTm [3]?
Its ΔTm is 16 °C.

What about the Ka [4] of the same molecule?
The Ka was 3.2 ×10⁶ /M/s.

And the Ka [5]?
The Ka was 4.2 ×10⁶ /M/s.

What about the “Dissociation rate constant (koff)” value [6] of the same molecule?
Its value is 5.3 ×10⁻³ /s.

And the ΔTm [7]?
Its ΔTm is 17.9 °C.

And the Ratio [8]?
Its Ratio is 1.

And the “Dissociation rate constant (koff)” value [9]?
The value was 7.2 ×10⁻³ /s.

And the IC50 ([14]; read-out: IC50)?
Its IC50 is 170 nM.

And the Kd [10]?
Its Kd is 1.7 nM.

What does the source list for `CC(=O)Nc1cc(C(=O)Nc2cn(C)c(C(=O)Nc3cc(C(=O)Nc4cc(C(=O)NCCCC(=O)Nc5cn(C)c(C(=O)Nc6cn(C)c(C(=O)NCCC(=O)Nc7cc(C(=O)NCCC(=O)NCCCN(C)C)n(C)c7)n6)n5)n(C)c4)n(C)c3)n2)n(C)c1`?
Ratio [11]: 0.59; Kd [2]: 150 nM; Ka [4]: 1.2 ×10⁶ /M/s; ΔTm [12]: 10.9 °C; ΔTm [13]: 7.6 °C; Ka [5]: 9.7 ×10⁵ /M/s; Dissociation rate constant (koff) [6]: 1.6 ×10⁻¹ /s; Ratio [8]: 0.9; Dissociation rate constant (koff) [9]: 1.5 ×10⁻¹ /s; Kd [10]: 130 nM

Which Ratio [1] does the source give for `CC(=O)Nc1cc(C(=O)Nc2cn(C)c(C(=O)NCCC(=O)Nc3cc(C(=O)NCCCC(=O)Nc4cn(C)c(C(=O)Nc5cn(C)c(C(=O)NCCC(=O)Nc6cc(C(=O)NCCC(=O)NCCCN(C)C)n(C)c6)n5)n4)n(C)c3)n2)n(C)c1` here?
The Ratio was 0.32.

What about the Kd [2] of the same molecule?
The Kd was 1.7 nM.

And the ΔTm [3]?
Its ΔTm is 18.1 °C.

What about the Ka [4] of the same molecule?
The Ka was 1.1 ×10⁶ /M/s.

What about the Ka [5] of the same molecule?
Its Ka is 1.4 ×10⁶ /M/s.

What about the “Dissociation rate constant (koff)” value [6] of the same molecule?
The value was 3.2 ×10⁻³ /s.

And the ΔTm [7]?
The ΔTm was 8.6 °C.

And the Ratio [8]?
The Ratio was 1.6.

And the “Dissociation rate constant (koff)” value [9]?
Its value is 2.4 ×10⁻³ /s.

What about the Kd [10] of the same molecule?
The Kd was 2.8 nM.

For `CC(=O)Nc1cc(C(=O)Nc2cc(C(=O)Nc3cn(C)c(C(=O)Nc4cc(C(=O)NCCCC(=O)Nc5cc(C(=O)Nc6cc(C(=O)Nc7cn(C)c(C(=O)Nc8cn(C)c(C(=O)NCCC(=O)NCCCN(C)C)n8)n7)n(C)c6)n(C)c5)n(C)c4)n3)n(C)c2)n(C)c1`, which Ratio [1] is on record?
Its Ratio is 0.19.

What about the ΔTm [3] of the same molecule?
The ΔTm was 1.6 °C.

And the ΔTm [7]?
Its ΔTm is 6.7 °C.

What about the IC50 ([14]; read-out: IC50) of the same molecule?
Its IC50 is 2560 nM.

With `CC(=O)Nc1cc(C(=O)Nc2cn(C)c(C(=O)NCCC(=O)Nc3cc(C(=O)NCCCC(=O)Nc4cn(C)c(C(=O)Nc5cn(C)c(C(=O)Nc6cc(C(=O)Nc7cc(C(=O)NCCC(=O)NCCCN(C)C)n(C)c7)n(C)c6)n5)n4)n(C)c3)n2)n(C)c1` as the molecule, how does the Ratio [11] read?
The Ratio was 0.54.

What about the Kd [2] of the same molecule?
The Kd was 150 nM.

And the Ka [4]?
Its Ka is 3.2 ×10⁵ /M/s.

What about the ΔTm [12] of the same molecule?
The ΔTm was 12.5 °C.

What about the ΔTm [13] of the same molecule?
Its ΔTm is 10.8 °C.

And the Ka [5]?
The Ka was 8.2 ×10⁵ /M/s.

What about the “Dissociation rate constant (koff)” value [6] of the same molecule?
Its value is 2 ×10⁻¹ /s.

And the Ratio [8]?
The Ratio was 4.1.

And the “Dissociation rate constant (koff)” value [9]?
Its value is 1.2 ×10⁻¹ /s.

What about the Kd [10] of the same molecule?
Its Kd is 610 nM.
